Data taken from ChEMBL document CHEMBL3352524, “Identification of arylsulfonamides as ExoU inhibitors” (Bioorg Med Chem Lett, 2014).

What was measured:
[1] = Toxicity against Saccharomyces cerevisiae 14328 assessed as cell viability at 5 uM after 48 hrs; assay type: organism-based; conditions: Saccharomyces cerevisiae 14328 cells, read-out: Activity
Pseudomonas aeruginosa = test: Inhibition of Pseudomonas aeruginosa ExoU expressed in Saccharomyces cerevisiae 14328 harboring pdr1/pdr3 genes assessed as cell death measured as yeast growth recovery at 5 uM after 48 hrs by copper-inducible promoter CUP1 assay; design: scale not given: the % may be the effect or the level left
[2] = Cytotoxicity against HEK293T cells assessed as cell viability at 5 uM after 48 hrs; assay type: cell-based, HEK-293T; conditions: human, read-out: Activity

SMILES	viability at 48 h, 5 µM [1] [%]	Activity (Pseudomonas aeruginosa) [%]	viability at 48 h, 5 µM [2] [%]
O=S(=O)(Nc1ccc2c(c1)OCCO2)c1ccc(C(F)(F)F)cc1	> 90	27.6	–
CC(C)(C)c1ccc(S(=O)(=O)Nc2ccc3c(c2)OCCO3)cc1	> 90	52.2	87.7
O=S(=O)(Nc1cccc2ccccc12)c1ccc(C(F)(F)F)cc1	> 90	45.4	> 90
Cc1cc(C)c(S(=O)(=O)Nc2ccc3c(c2)OCCO3)c(C)c1	> 90	60.2	> 90
CCCc1ccc(OCCNS(=O)(=O)c2c(C)cc(C)cc2C)cc1	85.2	30.6	72.3
Cc1cc(C)c(NS(=O)(=O)c2ccc3c(c2)OCCO3)c(C)c1	89.1	21	–
CCCCCc1ccc(S(=O)(=O)Nc2ccc3c(c2)OCCO3)cc1	> 90	9	–
NC(=O)c1cccc2c1-c1ccccc1C2	> 90	84.7	> 90
COc1ccc(NS(=O)(=O)c2c(C)cc(C)cc2C)cc1OC	> 90	18.5	–
Cc1cc(C)c(S(=O)(=O)NCCOc2ccccc2)c(C)c1	> 90	23.7	–
O=S(=O)(Nc1ccc2c(c1)OCCO2)c1ccc2ccccc2c1	> 90	36.6	87.5
